# Laboratory results as given in article PMC10115881, “Disrupting the α-synuclein-ESCRT interaction with a peptide inhibitor mitigates neurodegeneration in preclinical models of Parkinson’s disease” (Nature Communications, 2023).
# Columns and labels:
# [1] = test system: full-length YFP; experiment: YFP fluorescence in rat cortical neurons, full length YFP; format: cell-based
# Text: (§1) Adeno-associated virus (AAV) of a 1/2 serotype was used to express A53T a-syn (AAV-A53T), a truncated version of A53T a-syn lacking amino acids 103–140 (Δa-syn(103–140)), and WT a-syn, fused to either the N-terminal half of YFP (AAV-V1S) or the C-terminal half of YFP (AAV-SV2), all under the control of the CAG promoter, a hybrid of the chicken beta-actin (CBA) promoter fused with the cytomegalovirus (CMV) immediate early enhancer sequence (GeneDetect Ltd.)[46].
# (§2) Pregnant rats (E17) of the Sprague-Dawley strain were purchased from Envigo. Embryos were surgically removed from the mothers and cortices dissected in Hanks Balanced salt solution (Gibco). […]
# Confocal images of primary cortical neurons, iPSC-derived dopaminergic neurons, and LAMP1 staining within the SN were processed using Imaris software (Oxford instruments). […] Mean pixel intensity per GFP^+ cell (for experiments using GFP-tagged peptides) or RFP^+ cell (for experiments using RFP-tagged peptides) was calculated for a-syn or LAMP1 signal using the software’s surfaces module. The software’s surfaces module was used to identify GFP^+/NeuN^+ cells, and number of pS129 a-syn^+ puncta per GFP^+/NeuN^+ cortical neuron was counted using the software’s spots module. Mean pixel intensity per RFP^+/NeuN^+ cortical neuron was calculated for Rab7, cathepsin B, or cathepsin D signals using the software’s surfaces module. […]
# [2] = test system: Δa-syn(103–140); experiment: Truncated a-syn (103-140 lacking) HA immunofluorescence in rat cortical neurons; format: cell-based; conditions: a-syn lacking amino acids 103–140
# Text: as §1, §2
# (§3) After fixation, cells were permeabilized with 0.2% Triton-X-100 for 15 min, washed three times with PBS and then incubated with blocking solution (1% BSA, 22.52 mg/mL glycine, 0.1% Tween-20 in PBS or 0.4% saponin, 1% BSA, and 5% goat or donkey serum in PBS) for 1 h. […] Following another three washes with PBS, nuclei were counterstained with DAPI (ThermoFisher) and then coverslips were mounted on slides using Dako fluorescence mounting medium (Agilent) and sealed using clear nail varnish.
# [3] = test system: CD63; experiment: CD63 levels in HEK293 cells; format: cell-based, human; conditions: A53T a-syn
# Protocol: Infected or transfected cells were scraped from six-well dishes and lysed with lysis buffer (50 mM Tris-HCl pH 7.4, 1% Nonidet P-40, 150 mM NaCl, 1 mM EDTA, 1× protease inhibitor mixture (Sigma)) for 30 min at 4 °C. The insoluble pellet was removed following a 10,000 rpm spin for 5 min at 4 °C. Lysates were analyzed by SDS-PAGE/immunoblot using 4–20% Mini-PROTEAN Tris-glycine gels (Bio-Rad), transferred to polyvinylidene fluoride (PVDF) membranes, and blocked in 5% milk containing PBS-Tween-20 (0.1%) for 1 h. PVDF membranes were then incubated with specified primary antibodies followed by incubation with horseradish peroxidase-conjugated secondary antibodies (anti-mouse HRP-linked, Cell Signaling, catalog #7076, 1:5000; anti-rabbit HRP-linked, Cell Signaling, catalog #7074, 1:5000) and detected using enhanced chemiluminescence (GE Healthcare). Anti-a-syn antibody (clone 42) was obtained from BD Biosciences (catalog #610787, 1:1000). Anti-LAMP1 antibody was obtained from Abcam (catalog #ab24170, 1:500). Anti-beta-actin antibody was obtained from Cell Signaling (13E5) (catalog #4970, 1:1000). Anti-CD63 antibody was obtained from R&D Systems (catalog #MAB50482-SP, 1:1000).
# [4] = test system: endolysosomal flux in HEK293 cells; experiment: Endolysosomal flux assay, flow cytometry, HEK293 cells; format: cell-based, human; conditions: A53T a-syn
# Protocol: Flux via the endolysosomal pathway was measured with the Lysosome Intracellular Activity Assay Kit which was purchased from Abcam (ab234622) and used according to the manufacturer’s instructions. The kit provides a proprietary lysosome-specific self-quenched substrate which has low background fluorescence, high signal-to-background ratio, and is pH insensitive. In the assay, the substrate is taken up by cells and acts as endocytic cargo which is degraded within an endolysosomal vesicle. Following degradation, the fluorescence signal recovered from the substrate is proportional to the intracellular lysosomal activity. The activity can be measured by fluorescence microscopy or FACS. The assay was performed with HEK293T cells or SNCA triplication fibroblasts (obtained from NINDS Human Genetics Resource Center DNA and Cell Line Repository; NINDS Repository sample number ND27760). Cells were maintained in DMEM supplemented with 10% FBS and 1% pen/strep/glutamine. Cell medium was replaced with fresh medium containing DMSO, Leupeptin, or Bafilomycin A1 and incubated for 1 h at 37 °C with 5% CO2. Self-quenched substrate was added into each condition and incubated for 1 h (HEK293T cells) or overnight (SNCA triplication fibroblasts) at 37 °C with 5% CO2. […] For HEK293T cells, cells were resuspended in PBS containing DMSO or Leupeptin and analyzed by FACS. […]
# [5] = test system: cathepsin B; experiment: Cathepsin B fluorescence in rat cortical neurons; format: cell-based; conditions: A53T a-syn
# Text: Pregnant rats (E17) of the Sprague-Dawley strain were purchased from Envigo. Embryos were surgically removed from the mothers and cortices dissected in Hanks Balanced salt solution (Gibco). The meninges were removed, and cells were dissociated using a papain dissociation system (Worthington) before being resuspended in Neurobasal medium A supplemented with antibiotic-antimycotic solution (Gibco), L-glutamine substitute (GlutaMAX™; Gibco) and factor B27 (Gibco). […]
# as §3
# Confocal images of primary cortical neurons, iPSC-derived dopaminergic neurons, and LAMP1 staining within the SN were processed using Imaris software (Oxford instruments). […] Mean pixel intensity per GFP^+ cell (for experiments using GFP-tagged peptides) or RFP^+ cell (for experiments using RFP-tagged peptides) was calculated for a-syn or LAMP1 signal using the software’s surfaces module. […]
sequence,measurement,setting,value
DEEIERQLKALG [PDpep1.3],"Effect on YFP fluorescence, full-length YFP",[1],had no effect on fluorescence of YFP alone
same,Effect on truncated a-syn levels,[2],did not reduce levels of this truncated a-syn
same,Effect on CD63 levels,[3],return of CD63
same,Effect on endolysosomal flux,[4],returned the fluorescent signal to baseline
same,Effect on cathepsin B,[5],reduced to control levels
